In the kinase profiling compilation of Christmann-Franck et al. (2016):

Key:
BRSK2 (human) = BRSK2 (human) (UniProt Q8IWQ3)
BTK (human) = BTK (human) (UniProt Q06187)
CAMKK2 (human) = CAMKK2 (human) (UniProt Q96RR4)
CDK2 CCNA2 (human) = CDK2 CCNA2 (human) (UniProt P20248+P24941)
CSNK1D (human) = CSNK1D (human) (UniProt P48730)
CSNK2A1 (human) = CSNK2A1 (human) (UniProt P68400)
DYRK2 (human) = DYRK2 (human) (UniProt Q92630)
DYRK3 (human) = DYRK3 (human) (UniProt O43781)
EPHA2 (human) = EPHA2 (human) (UniProt P29317)
FGFR1 (human) = FGFR1 (human) (UniProt P11362)
FLT1 (human) = FLT1 (human) (UniProt P17948)
IGF1R (human) = IGF1R (human) (UniProt P08069)
IKBKB (human) = IKBKB (human) (UniProt O14920)
IKBKE (human) = IKBKE (human) (UniProt Q14164)
MAPK1 (human) = MAPK1 (human) (UniProt P28482)
MAPK12 (human) = MAPK12 (human) (UniProt P53778)
MAPK13 (human) = MAPK13 (human) (UniProt O15264)
MAPK15 (human) = MAPK15 (human) (UniProt Q8TD08)
MAPK9 (human) = MAPK9 (human) (UniProt P45984)
MAPKAPK2 (human) = MAPKAPK2 (human) (UniProt P49137)
MARK3 (human) = MARK3 (human) (UniProt P27448)
MELK (human) = MELK (human) (UniProt Q14680)
MKNK1 (human) = MKNK1 (human) (UniProt Q9BUB5)
NEK2 (human) = NEK2 (human) (UniProt P51955)
PAK6 (human) = PAK6 (human) (UniProt Q9NQU5)
PAK7 (human) = PAK7 (human) (UniProt Q9P286)
PIM1 (human) = PIM1 (human) (UniProt P11309)
PKN2 (human) = PKN2 (human) (UniProt Q16513)
PLK1 (human) = PLK1 (human) (UniProt P53350)
PRKCZ (human) = PRKCZ (human) (UniProt Q05513)
ROCK2 (rat) = settings: accession and sequence are those of the human protein
RPS6KA5 KD1 KD2 (human) = RPS6KA5 KD1 KD2 (human) (UniProt O75582)
STK3 (human) = STK3 (human) (UniProt Q13188)
TBK1 (human) = TBK1 (human) (UniProt Q9UHD2)

Chain of DYRK3 (human) (O43781 whole entry, looked up): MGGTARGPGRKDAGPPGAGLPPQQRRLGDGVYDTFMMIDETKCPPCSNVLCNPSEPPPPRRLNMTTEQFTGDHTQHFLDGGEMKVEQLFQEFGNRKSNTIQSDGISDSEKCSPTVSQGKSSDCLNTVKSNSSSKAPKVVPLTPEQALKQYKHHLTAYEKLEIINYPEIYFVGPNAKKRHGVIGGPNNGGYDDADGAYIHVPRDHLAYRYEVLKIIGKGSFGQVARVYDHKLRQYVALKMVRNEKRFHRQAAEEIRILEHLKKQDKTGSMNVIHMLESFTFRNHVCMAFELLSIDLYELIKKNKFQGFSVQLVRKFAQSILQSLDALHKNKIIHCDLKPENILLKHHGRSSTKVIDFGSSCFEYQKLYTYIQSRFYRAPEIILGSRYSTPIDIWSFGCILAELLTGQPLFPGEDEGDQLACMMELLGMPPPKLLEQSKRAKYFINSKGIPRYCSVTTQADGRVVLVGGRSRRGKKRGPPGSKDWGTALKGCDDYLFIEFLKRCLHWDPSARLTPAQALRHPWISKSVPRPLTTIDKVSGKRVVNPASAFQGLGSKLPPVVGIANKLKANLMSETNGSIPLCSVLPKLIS
Chain of PLK1 (human) (P53350 whole entry, looked up): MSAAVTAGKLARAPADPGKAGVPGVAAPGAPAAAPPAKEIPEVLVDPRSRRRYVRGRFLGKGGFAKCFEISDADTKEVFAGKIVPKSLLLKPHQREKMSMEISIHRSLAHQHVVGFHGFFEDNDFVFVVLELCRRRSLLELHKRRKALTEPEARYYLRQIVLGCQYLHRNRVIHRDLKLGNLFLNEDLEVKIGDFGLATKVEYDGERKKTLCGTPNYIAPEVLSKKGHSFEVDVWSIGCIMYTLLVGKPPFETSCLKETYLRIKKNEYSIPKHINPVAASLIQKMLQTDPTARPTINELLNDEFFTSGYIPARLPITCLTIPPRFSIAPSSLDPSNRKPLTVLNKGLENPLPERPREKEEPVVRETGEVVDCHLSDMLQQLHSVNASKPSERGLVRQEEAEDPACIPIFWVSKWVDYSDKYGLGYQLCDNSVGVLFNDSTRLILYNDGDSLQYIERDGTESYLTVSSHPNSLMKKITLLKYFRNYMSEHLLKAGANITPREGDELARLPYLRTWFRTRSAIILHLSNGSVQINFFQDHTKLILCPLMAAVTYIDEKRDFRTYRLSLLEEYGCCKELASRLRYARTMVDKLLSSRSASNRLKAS
Chain of MAPK1 (human) (P28482 whole entry, looked up): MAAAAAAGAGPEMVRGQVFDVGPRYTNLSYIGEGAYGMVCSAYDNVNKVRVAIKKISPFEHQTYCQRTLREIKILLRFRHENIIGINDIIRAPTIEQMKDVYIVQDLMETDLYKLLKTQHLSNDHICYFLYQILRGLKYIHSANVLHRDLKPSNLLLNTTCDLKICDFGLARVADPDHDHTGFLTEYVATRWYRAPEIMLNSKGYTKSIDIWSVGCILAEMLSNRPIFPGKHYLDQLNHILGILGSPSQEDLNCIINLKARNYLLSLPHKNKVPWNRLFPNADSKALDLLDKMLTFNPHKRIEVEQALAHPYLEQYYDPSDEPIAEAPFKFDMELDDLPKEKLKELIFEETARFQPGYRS
Chain of NEK2 (human) (P51955 whole entry, looked up): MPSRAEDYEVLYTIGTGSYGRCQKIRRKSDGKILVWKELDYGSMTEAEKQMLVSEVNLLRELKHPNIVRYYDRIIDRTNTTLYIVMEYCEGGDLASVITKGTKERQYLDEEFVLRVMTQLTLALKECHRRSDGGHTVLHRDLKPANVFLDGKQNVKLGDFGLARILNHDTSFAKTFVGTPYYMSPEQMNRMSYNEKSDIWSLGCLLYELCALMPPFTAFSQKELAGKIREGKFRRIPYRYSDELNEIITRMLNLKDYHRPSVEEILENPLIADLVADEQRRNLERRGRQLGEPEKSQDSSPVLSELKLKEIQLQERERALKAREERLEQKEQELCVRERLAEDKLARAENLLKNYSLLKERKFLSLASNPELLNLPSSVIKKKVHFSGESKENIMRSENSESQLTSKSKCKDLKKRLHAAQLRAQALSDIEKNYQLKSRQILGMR
Chain of PAK6 (human) (Q9NQU5 whole entry, looked up): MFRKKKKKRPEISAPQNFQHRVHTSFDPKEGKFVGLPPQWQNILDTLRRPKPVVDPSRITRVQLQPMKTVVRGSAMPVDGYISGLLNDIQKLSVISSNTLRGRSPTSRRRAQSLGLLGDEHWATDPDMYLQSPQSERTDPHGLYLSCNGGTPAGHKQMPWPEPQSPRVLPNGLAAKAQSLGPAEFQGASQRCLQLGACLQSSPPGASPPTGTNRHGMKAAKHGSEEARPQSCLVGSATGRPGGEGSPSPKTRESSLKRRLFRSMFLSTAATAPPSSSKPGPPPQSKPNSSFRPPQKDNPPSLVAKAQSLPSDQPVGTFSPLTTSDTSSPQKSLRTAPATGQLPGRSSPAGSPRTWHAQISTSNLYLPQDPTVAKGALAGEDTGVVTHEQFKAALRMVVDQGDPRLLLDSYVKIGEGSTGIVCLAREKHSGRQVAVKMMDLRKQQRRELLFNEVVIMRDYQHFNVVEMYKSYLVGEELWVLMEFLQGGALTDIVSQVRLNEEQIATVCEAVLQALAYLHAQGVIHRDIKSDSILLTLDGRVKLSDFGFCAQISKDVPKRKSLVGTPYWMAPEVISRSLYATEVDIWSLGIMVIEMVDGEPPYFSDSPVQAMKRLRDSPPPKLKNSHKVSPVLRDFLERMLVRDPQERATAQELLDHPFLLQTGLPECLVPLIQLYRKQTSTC
Chain of MAPK13 (human) (O15264 whole entry, looked up): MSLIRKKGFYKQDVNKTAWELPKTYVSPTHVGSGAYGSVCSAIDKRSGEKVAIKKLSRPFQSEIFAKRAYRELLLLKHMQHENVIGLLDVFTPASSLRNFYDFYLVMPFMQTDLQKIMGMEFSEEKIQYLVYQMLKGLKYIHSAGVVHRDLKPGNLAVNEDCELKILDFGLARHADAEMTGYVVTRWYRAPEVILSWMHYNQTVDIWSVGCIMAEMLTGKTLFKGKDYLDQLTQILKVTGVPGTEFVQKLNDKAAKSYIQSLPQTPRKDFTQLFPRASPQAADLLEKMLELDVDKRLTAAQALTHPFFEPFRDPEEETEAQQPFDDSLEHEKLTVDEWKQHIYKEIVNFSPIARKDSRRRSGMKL
Chain of CAMKK2 (human) (Q96RR4 whole entry, looked up): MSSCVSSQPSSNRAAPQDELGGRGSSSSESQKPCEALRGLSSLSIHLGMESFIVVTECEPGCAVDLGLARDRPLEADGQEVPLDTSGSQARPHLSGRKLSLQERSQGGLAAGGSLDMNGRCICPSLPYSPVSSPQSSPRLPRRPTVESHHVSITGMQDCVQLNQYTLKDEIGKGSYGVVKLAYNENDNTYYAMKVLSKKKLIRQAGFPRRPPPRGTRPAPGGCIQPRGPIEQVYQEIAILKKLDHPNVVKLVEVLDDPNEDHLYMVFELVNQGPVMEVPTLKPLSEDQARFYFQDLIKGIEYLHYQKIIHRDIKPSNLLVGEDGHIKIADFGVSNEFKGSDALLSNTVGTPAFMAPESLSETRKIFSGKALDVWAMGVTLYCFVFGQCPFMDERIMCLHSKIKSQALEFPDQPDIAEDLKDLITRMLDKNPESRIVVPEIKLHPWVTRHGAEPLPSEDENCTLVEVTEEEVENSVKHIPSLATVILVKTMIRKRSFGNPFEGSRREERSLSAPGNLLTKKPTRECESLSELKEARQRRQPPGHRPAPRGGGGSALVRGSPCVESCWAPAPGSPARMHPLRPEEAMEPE
Chain of PAK7 (human) (Q9P286 whole entry, looked up): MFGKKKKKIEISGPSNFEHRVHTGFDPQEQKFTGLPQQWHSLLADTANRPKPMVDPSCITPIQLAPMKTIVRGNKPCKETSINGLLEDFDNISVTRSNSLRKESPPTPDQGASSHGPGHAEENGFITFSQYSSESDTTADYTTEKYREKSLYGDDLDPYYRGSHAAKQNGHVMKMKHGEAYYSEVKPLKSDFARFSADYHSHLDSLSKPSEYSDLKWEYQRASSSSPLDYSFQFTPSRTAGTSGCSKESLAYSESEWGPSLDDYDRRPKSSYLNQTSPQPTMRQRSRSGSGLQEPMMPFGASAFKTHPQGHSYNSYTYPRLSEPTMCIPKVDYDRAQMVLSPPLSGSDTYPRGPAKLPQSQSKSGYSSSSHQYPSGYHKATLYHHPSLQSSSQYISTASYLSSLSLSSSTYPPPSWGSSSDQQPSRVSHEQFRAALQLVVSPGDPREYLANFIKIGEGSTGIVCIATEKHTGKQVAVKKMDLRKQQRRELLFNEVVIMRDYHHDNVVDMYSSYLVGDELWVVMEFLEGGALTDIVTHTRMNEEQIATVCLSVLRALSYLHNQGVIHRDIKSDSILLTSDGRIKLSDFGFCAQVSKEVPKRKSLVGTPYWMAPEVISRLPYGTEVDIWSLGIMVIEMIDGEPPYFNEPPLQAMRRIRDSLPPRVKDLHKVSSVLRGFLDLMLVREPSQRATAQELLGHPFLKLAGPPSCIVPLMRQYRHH
Chain of PRKCZ (human) (Q05513 whole entry, looked up): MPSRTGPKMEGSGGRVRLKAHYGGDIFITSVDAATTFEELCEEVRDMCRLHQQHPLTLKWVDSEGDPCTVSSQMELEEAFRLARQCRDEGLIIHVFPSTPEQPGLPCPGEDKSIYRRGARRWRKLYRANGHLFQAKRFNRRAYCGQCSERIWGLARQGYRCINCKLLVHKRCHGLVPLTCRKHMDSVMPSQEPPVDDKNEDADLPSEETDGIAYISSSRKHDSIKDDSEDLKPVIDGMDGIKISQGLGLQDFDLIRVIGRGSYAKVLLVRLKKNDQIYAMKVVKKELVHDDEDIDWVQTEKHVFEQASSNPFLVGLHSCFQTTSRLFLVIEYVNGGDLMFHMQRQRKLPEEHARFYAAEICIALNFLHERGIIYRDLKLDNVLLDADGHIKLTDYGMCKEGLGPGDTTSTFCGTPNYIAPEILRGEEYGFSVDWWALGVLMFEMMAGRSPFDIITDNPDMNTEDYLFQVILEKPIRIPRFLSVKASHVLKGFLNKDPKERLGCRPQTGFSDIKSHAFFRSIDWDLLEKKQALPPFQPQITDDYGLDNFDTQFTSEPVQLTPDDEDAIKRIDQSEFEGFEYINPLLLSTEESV

`COc1ccc(-c2ccc3c(N4CCOCC4)nc(N4C[C@@H](C)O[C@@H](C)C4)nc3n2)cc1CO` was tested, and the per cent of control (BRSK2 (human); compound 1.0 µM) was 90%, the per cent of control (BRSK2 (human); compound 10.0 µM) was 72% and the per cent of control (BTK (human); compound 1.0 µM) was 85%. It also gave a per cent of control (BTK (human); compound 10.0 µM) of 81%, a per cent of control (CAMKK2 (human); compound 1.0 µM) of 108% and a per cent of control (CAMKK2 (human); compound 10.0 µM) of 94%. The per cent of control (CDK2 CCNA2 (human); compound 1.0 µM) was 89%, the per cent of control (CDK2 CCNA2 (human); compound 10.0 µM) was 90% and the per cent of control (CSNK1D (human); compound 1.0 µM) was 112%. For the same compound, the per cent of control (CSNK1D (human); compound 10.0 µM) was 109%, the per cent of control (CSNK2A1 (human); compound 1.0 µM) was 104% and the per cent of control (CSNK2A1 (human); compound 10.0 µM) was 85%. It also gave a per cent of control (DYRK2 (human); compound 1.0 µM) of 92%, a per cent of control (DYRK2 (human); compound 10.0 µM) of 96% and a per cent of control (DYRK3 (human); compound 1.0 µM) of 88%. It also gave a per cent of control (DYRK3 (human); compound 10.0 µM) of 84%, a per cent of control (EPHA2 (human); compound 1.0 µM) of 108% and a per cent of control (EPHA2 (human); compound 10.0 µM) of 96%. The per cent of control (FGFR1 (human); compound 1.0 µM) was 102%, the per cent of control (FGFR1 (human); compound 10.0 µM) was 87% and the per cent of control (FLT1 (human); compound 1.0 µM) was 92%. The per cent of control (FLT1 (human); compound 10.0 µM) was 92%, the per cent of control (IGF1R (human); compound 1.0 µM) was 117% and the per cent of control (IGF1R (human); compound 10.0 µM) was 89%. It also gave a per cent of control (IKBKB (human); compound 1.0 µM) of 104%, a per cent of control (IKBKB (human); compound 10.0 µM) of 89% and a per cent of control (IKBKE (human); compound 1.0 µM) of 99%. It also gave a per cent of control (IKBKE (human); compound 10.0 µM) of 100%, a per cent of control (MAPK1 (human); compound 1.0 µM) of 102% and a per cent of control (MAPK1 (human); compound 10.0 µM) of 92%. For the same compound, the per cent of control (MAPK12 (human); compound 1.0 µM) was 89%, the per cent of control (MAPK12 (human); compound 10.0 µM) was 91% and the per cent of control (MAPK13 (human); compound 1.0 µM) was 72%. The per cent of control (MAPK13 (human); compound 10.0 µM) was 87%, the per cent of control (MAPK15 (human); compound 1.0 µM) was 88% and the per cent of control (MAPK15 (human); compound 10.0 µM) was 92%. For the same compound, the per cent of control (MAPK9 (human); compound 1.0 µM) was 101%, the per cent of control (MAPK9 (human); compound 10.0 µM) was 103% and the per cent of control (MAPKAPK2 (human); compound 1.0 µM) was 98%. It also gave a per cent of control (MAPKAPK2 (human); compound 10.0 µM) of 81%, a per cent of control (MARK3 (human); compound 1.0 µM) of 93% and a per cent of control (MARK3 (human); compound 10.0 µM) of 93%. It also gave a per cent of control (MELK (human); compound 1.0 µM) of 91%, a per cent of control (MELK (human); compound 10.0 µM) of 72% and a per cent of control (MKNK1 (human); compound 1.0 µM) of 111%. For the same compound, the per cent of control (MKNK1 (human); compound 10.0 µM) was 75%, the per cent of control (NEK2 (human); compound 1.0 µM) was 92% and the per cent of control (NEK2 (human); compound 10.0 µM) was 86%. The per cent of control (PAK6 (human); compound 1.0 µM) was 75%, the per cent of control (PAK6 (human); compound 10.0 µM) was 100% and the per cent of control (PAK7 (human); compound 1.0 µM) was 101%. It also gave a per cent of control (PAK7 (human); compound 10.0 µM) of 81%, a per cent of control (PIM1 (human); compound 1.0 µM) of 89% and a per cent of control (PIM1 (human); compound 10.0 µM) of 98%. It also gave a per cent of control (PKN2 (human); compound 1.0 µM) of 95%, a per cent of control (PKN2 (human); compound 10.0 µM) of 105% and a per cent of control (PLK1 (human); compound 1.0 µM) of 76%. The per cent of control (PLK1 (human); compound 10.0 µM) was 94%, the per cent of control (PRKCZ (human); compound 1.0 µM) was 87% and the per cent of control (PRKCZ (human); compound 10.0 µM) was 84%. The per cent of control (ROCK2 (rat); compound 1.0 µM) was 75%, the per cent of control (ROCK2 (rat); compound 10.0 µM) was 86% and the per cent of control (RPS6KA5 KD1 KD2 (human); compound 1.0 µM) was 101%. It also gave a per cent of control (RPS6KA5 KD1 KD2 (human); compound 10.0 µM) of 117%, a per cent of control (STK3 (human); compound 1.0 µM) of 81% and a per cent of control (STK3 (human); compound 10.0 µM) of 102%. It also gave a per cent of control (TBK1 (human); compound 1.0 µM) of 97% and a per cent of control (TBK1 (human); compound 10.0 µM) of 89%.
